Data published in patent US5238964A, “Agent for treatment of cerebrovascular contraction” (Torii & Co., Ltd., priority 1990, dated 1993).

What was measured:
[1] = experimental subarachnoid bleeding in rabbits, basal arteria thickness ratio; assay type: in vivo, rabbit; conditions: for suppression of cerebrovascular contraction subsequent to subarachnoid bleeding: rabbits, i.v.; for Basal arteria thickness ratio: after vs before subarachnoid bleeding
Procedure: By injecting previously collected blood into the postcisterna of a rabbit, subarachnoid bleeding similar to human subarachnoid bleeding can be produced experimentally in the rabbit. The therapeutic effect of a pharmaceutical composition for treating cerebrovascular contraction is judged by comparing the thickness of the basal arteria before and after the experimental production of subarachnoid bleeding.
Subarachnoid bleeding was produced experimentally in rabbits, and 20 minutes thereafter 3 mg, 6 mg and 9 mg of 6-amidino-2-naphthyl p-guanidinobenzoate dimethanesulfonate [drawing 12] were respectively administered intravenously to the rabbits.

[2] = intermittent intravenous administration to subarachnoid bleeding patients after acute phase operation (DIND, CT low, Angiographic Spasm Scale, Glasgow Outcome Scale); assay type: in vivo, human (patients); conditions: for CT low due to spasm: control 43%; for good recovery (Glasgow Outcome Scale) / vegetative survival+death (Glasgow Outcome Scale): control 36%
Procedure: We have tried intermittent intravenous administration of FUT-175 (nafamostat mesilate, the present compound) for the purpose of prevention and/or treatment of cerebrovascular contraction after acute phase operation on subarachnoid bleeding patients. A dosage of 40-160 mg/day was chosen by converting the amount of drug per kg rabbit weight to amount of drug per kg of human weight.
The subjects were the ruptured cerebral aneurysm patients who had acute phase operation and belonged to Group 3 or 4 in Fisher's preoperative CT classification (Fisher, C. M., et al., "Cerebral vasospasm with ruptured saccular aneurysm-Clinical manifestations" (1977), Neurosurgery, volume 1, pages 245-248). […] Also, the subjects were limited to the cases of Grades II-IV in Hunt and Hess gravity grating without modification by previous history and to the patients to whom administration could be started within 48 hours after crisis (Hunt, W. E., et al., "Surgical risk as related to time of intervention in the repair of intracranial aneurysms" (1968), J. Neurosurg., volume 28, pages 14-20).
The compound was given to the subjects by intermittent intravenous administration starting immediately after operation. In Group A, the compound was administered twice a day, 20 mg per administration (40 mg in total daily dosage) for 4 days; four times a day, 20 mg per administration (80 mg in total daily dosage) for 4 days in Group B; and four times a day, 40 mg per administration (160 mg in total daily dosage) for 4 days in Group C. Each dose of the compound was dissolved in 100 ml of physiological saline. Time of one intravenous administration was normally 2 hours.
The control cases were the serious subarachnoid bleeding patients after acute phase clipping operation performed in our clinic in 1989. Both groups were substantially commensurate with each other in gravity grating and CT classification (Fisher classification by computed tomography), but in the control group there were slightly more cases of mycotic cerebral aneurysm than in the treated group.
There was no difference between the control and treated groups in substances of treatment excepting administration of the present compound and in operating staff. The effect of the treatment was judged by occurrence or non-occurrence of delayed ischemic neurological deficit (DIND), low-density CT area due to vasospasm and caliber change in arteries as observed by cerebral angiography conducted in the period from day 5 to day 8 (post occurrence of cerebrovascular contraction) which is considered the peak period of development of vasospasm.
For judgement of spasm in the control group, an Angiographic Spasm Scale (ASS) of the following grading was prepared:
Grade 0 (none): No caliber change in any arteries,
Grade 1 (mild): Vascular contraction is localized,
Grade 2 (moderate): Multisegmental vascular contraction is observed, and
Grade 3 (severe): Severe contraction exceeding 50% is seen in multisegmental sites (Weir, B., et al., "Time course of vasospasm in man" (1978), J. Neurosurg., volume 48, pages 173-178; Kim, H., et al., "Time course of vasospasm--Its clinical significance" (1979), Neuro. Med. Chir. (Tokyo), volume 19, pages 95-102).
The Glasgow Outcome Scale (GOS) was used to evaluate the outcome one month after crisis. According to GOS, there are five degrees: 1-death, 2-vegetative state, 3-severe disability, 4-moderate disability, 5-good recovery.

plasma kallikrein = conditions: quinine system; cited from earlier work
platelet agglutination = conditions: cited from earlier work
plasmin = conditions: fibrinolytic system; cited from earlier work
C 1s = conditions: complement system; cited from earlier work
[3] = cited from earlier work
[4] = test system: factor D of complement system; conditions: cited from earlier work
factor Xa = conditions: coagulation system; cited from earlier work
trypsin = conditions: cited from earlier work
[5] = test system: circulating blood coagulating action; experiment: bleeding and coagulation times measured during intravenous administration in treated groups B and C; assay type: in vivo, human (patients)
Description: The present compound is a serine protease inhibitor which can inhibit various kinds of serine protease including C 1r, C 1s, factor B and factor D of complement system, factor XIIa, factor Xa and thrombin of coagulation system, plasma kallikrein of quinine system, plasmin of fibrinolytic system, trypsin, etc. […] It was considered that the administration method employed in this experiment would give no influence on circulating blood coagulating action of the compound.

C 1r = conditions: complement system; cited from earlier work
factor XIIa = conditions: coagulation system; cited from earlier work
[6] = test system: factor B of complement system; conditions: cited from earlier work
thrombin = conditions: coagulation system; cited from earlier work
[7] = Groups A, B and C, one month after crisis
[8] = Groups B and C (higher dosage), one month after crisis
[9] = after serious subarachnoid bleeding

CS(=O)(=O)O.N=C(N)Nc1ccc(C(=O)Oc2ccc(SCCN3C(=O)CCC3=O)cc2)cc1 [4-(2-succinimidoethylthio)phenyl 4-guanidinobenzoate methanesulfonate]
suppression of cerebrovascular contraction subsequent to subarachnoid bleeding [1]: clearly suppressed the cerebrovascular contraction subsequent to subarachnoid bleeding, showing the same effect as that of the compound used in Example 1

CS(=O)(=O)O.CS(=O)(=O)O.N=C(N)Nc1ccc(C(=O)Oc2ccc3cc(C(=N)N)ccc3c2)cc1 [6-amidino-2-naphthyl p-guanidinobenzoate dimethanesulfonate]
CT-low attributable to DIND ([2]; Group A, 40 mg/day for 4 days): 2 out of 9 | cases at grade 1 of ASS ([2]; Group A, 40 mg/day for 4 days): 3 cases | cases at grade 2 of ASS ([2]; Group A, 40 mg/day for 4 days): 3 cases | cases at grade 3 of ASS ([2]; Group A, 40 mg/day for 4 days): 3 cases | incidence of DIND ([2]; Group A, 40 mg/day for 4 days): 2 out of 9 | cases at grade 0 (no caliber change in any arteries) ([2]; Group B, 80 mg/day for 4 days): 4 cases | cases at grade 1 of ASS ([2]; Group B, 80 mg/day for 4 days): 3 cases | cases at grade 3 of ASS ([2]; Group B, 80 mg/day for 4 days): one | incidence of DIND ([2]; Group B, 80 mg/day for 4 days): one out of 9 | low density area on CT scan ([2]; Group B, 80 mg/day for 4 days): no case | incidence of DIND ([2]; Group C, 160 mg/day for 4 days): no case | good in GOS (Glasgow Outcome Scale) ([2]; Group C, 160 mg/day for 4 days, one month after crisis): 4 out of 5 | subjects with no change or mild degree of contraction (angiographic spasm grading) ([2]; Groups A, B and C): 64% | ASS Grade 3 (severe) ([2]; Groups A, B and C combined): 18% | CT low due to spasm ([2]; Groups A, B and C): 9% | incidence of DIND ([2]; Groups A, B and C, control 55%): 13% | good recovery (Glasgow Outcome Scale) [2, 7]: 65% | vegetative survival+death (Glasgow Outcome Scale) [2, 7]: 9% | ASS Grade 3 (severe) ([2]; Groups B and C (higher dosage)): 8% | subjects mild or none in degree of contraction (angiographic spasm grading) ([2]; Groups B and C (higher dosage)): 85% | CT low due to spasm ([2]; Groups B and C (higher dosage)): 0% | incidence of DIND ([2]; Groups B and C (higher dosage), control 55%): 7% | good recovery (Glasgow Outcome Scale) [2, 8]: 71% | vegetative survival+death (Glasgow Outcome Scale) [2, 8]: 0% | inhibition of incidence of delayed ischemic neurological deficit [2, 9]: could inhibit incidence of delayed ischemic neurological deficit | prognosis of the patient [2, 9]: improve the prognosis of the patient | Basal arteria thickness ratio ([1]; 3 mg/kg i.v., 1st day): 86% | Basal arteria thickness ratio ([1]; 3 mg/kg i.v., 2nd day): 79% | Basal arteria thickness ratio ([1]; 3 mg/kg i.v., 3rd day): 85% | Basal arteria thickness ratio ([1]; 3 mg/kg i.v., 4th day): 88% | Basal arteria thickness ratio ([1]; 3 mg/kg i.v., 5th day): 90% | Basal arteria thickness ratio ([1]; 6 mg/kg i.v., 1st day): 97% | Basal arteria thickness ratio ([1]; 6 mg/kg i.v., 2nd day): 95% | Basal arteria thickness ratio ([1]; 6 mg/kg i.v., 3rd day): 95% | Basal arteria thickness ratio ([1]; 6 mg/kg i.v., 4th day): 96% | Basal arteria thickness ratio ([1]; 6 mg/kg i.v., 5th day): 101% | suppression of cerebrovascular contraction subsequent to subarachnoid bleeding [1]: clearly suppressed the cerebrovascular contraction | inhibition of plasma kallikrein (plasma kallikrein): can inhibit | platelet agglutination inhibiting action (platelet agglutination): concentration dependent platelet agglutination inhibiting action | inhibition of plasmin (plasmin): can inhibit | inhibition of C 1s (C 1s): can inhibit | passage into tissue ([3]; in vivo): quickly passes into tissue | half-life period in blood, α phase ([3]; α phase): 1.1 min | half-life period in blood, β phase ([3]; β phase): 23.1 min | inhibition of factor D [4]: can inhibit | inhibition of factor Xa (factor Xa): can inhibit | inhibition of trypsin (trypsin): can inhibit | activated partial thromboplastin time (APTT) [5]: in the normal ranges | bleeding time [5]: in the normal ranges | coagulation time [5]: in the normal ranges | prothrombin time (PT) [5]: in the normal ranges | inhibition of C 1r (C 1r): can inhibit | inhibition of factor XIIa (factor XIIa): can inhibit | inhibition of factor B [6]: can inhibit | inhibition of thrombin (thrombin): can inhibit
